Results taken from ChEMBL document CHEMBL5252541, “Repurposing antipsychotic drugs into antifungal agents: Synergistic combinations of azoles and bromperidol derivatives in the treatment of various fungal infections” (Eur J Med Chem, 2017).
Values after ≈ are worked out from the molar mass of the structure shown.

Legend:
Candida albicans [1] = test: Antifungal activity against Candida albicans ATCC MYA-2876 measured after 48 hrs by broth microdilution analysis; format: functional
Candida albicans [2] = test: Synergistic antifungal activity against Candida albicans ATCC MYA-1237 assessed as voriconazole MIC measured after 48 hrs by checkboard based microplate reader analysis; format: functional
Candida albicans [3] = test: microbe, parasite or virus in culture; settings: ATCC 10231, 48 h
Description: Synergistic antifungal activity against Candida albicans ATCC 10231 assessed as voriconazole MIC measured after 48 hrs by checkboard based microplate reader analysis

HEK293 [4] = test: Cytotoxicity against HEK293 cells assessed as cell survival at 4 to 16 microg/ml by XTT assay; format: toxicity, cell-based; settings: human, dose 4-16 µg/ml
Aspergillus terreus [5] = test: Antifungal activity against Aspergillus terreus ATCC MYA-3633 measured after 48 hrs by broth microdilution analysis; format: functional
Candida albicans [6] = test: Antifungal activity against Candida albicans ATCC MYA-1003 measured after 48 hrs by broth microdilution analysis; format: functional
Aspergillus terreus [7] = test: Synergistic antifungal activity against Aspergillus terreus ATCC MYA-3633 assessed as voriconazole MIC measured after 48 hrs by checkboard based microplate reader analysis; format: functional
BEAS-2B [8] = test: Cytotoxicity against human BEAS-2B cells assessed as cell survival at 4 to 16 microg/ml by XTT assay; format: toxicity, cell-based; settings: dose 4-16 µg/ml
BEAS-2B [9] = test: Cytotoxicity against human BEAS-2B cells assessed as cell survival up to 4 microg/ml by XTT assay; format: toxicity, cell-based; settings: dose < 4 µg/ml
Candida albicans [10] = test: Antifungal activity against Candida albicans ATCC 64124 measured after 48 hrs by broth microdilution analysis; format: functional
Candida albicans [11] = test: microbe, parasite or virus in culture; settings: ATCC 64124, 48 h
Description: Synergistic antifungal activity against Candida albicans ATCC 64124 assessed as voriconazole MIC measured after 48 hrs by checkboard based microplate reader analysis

Nakaseomyces glabratus [12] = test: Antifungal activity against Candida glabrata ATCC 2001 measured after 48 hrs by broth microdilution analysis; format: functional
Candida albicans [13] = test: Antifungal activity against Candida albicans ATCC MYA-1237 measured after 48 hrs by broth microdilution analysis; format: functional
[14] = Cytotoxicity against mouse J774.A1 cells assessed as cell survival by XTT assay; format: toxicity, cell-based; settings: read-out: Activity
HEK293 [15] = test: Cytotoxicity against HEK293 cells assessed as cell survival up to 4 microg/ml by XTT assay; format: toxicity, cell-based; settings: human, dose < 4 µg/ml
[16] = Cytotoxicity against HEK293 cells assessed as cell survival by XTT assay; format: toxicity, cell-based; settings: human, read-out: Activity
HEK293 [17] = test: Cytotoxicity against HEK293 cells assessed as cell survival at 8 microg/ml by XTT assay; format: toxicity, cell-based; settings: human, dose 8 µg/ml
Nakaseomyces glabratus [18] = test: Synergistic antifungal activity against Candida glabrata ATCC 2001 assessed as voriconazole MIC measured after 48 hrs by checkboard based microplate reader analysis; format: functional
J774.A1 [19] = test: Cytotoxicity against mouse J774.A1 cells assessed as cell survival at 4 to 16 microg/ml by XTT assay; format: toxicity, cell-based; settings: dose 4-16 µg/ml
Candida albicans [20] = test: Synergistic antifungal activity against Candida albicans ATCC MYA-2310 assessed as voriconazole MIC measured after 48 hrs by checkboard based microplate reader analysis; format: functional
Candida albicans [21] = test: Synergistic antifungal activity against Candida albicans ATCC MYA-1003 assessed as voriconazole MIC measured after 48 hrs by checkboard based microplate reader analysis; format: functional
[22] = Cytotoxicity against mouse J774.A1 cells assessed as cell survival at 8 microg/ml by XTT assay; format: toxicity, cell-based; settings: J774.A1 cells, at 8 µg/mL, read-out: Activity
Candida albicans [23] = test: microbe, parasite or virus in culture; settings: ATCC 90819, 48 h
Description: Synergistic antifungal activity against Candida albicans ATCC 90819 assessed as voriconazole MIC measured after 48 hrs by checkboard based microplate reader analysis

Candida albicans [24] = test: Antifungal activity against Candida albicans ATCC 90819 measured after 48 hrs by broth microdilution analysis; format: functional
Candida albicans [25] = test: Synergistic antifungal activity against Candida albicans ATCC MYA-2876 assessed as voriconazole MIC measured after 48 hrs by checkboard based microplate reader analysis; format: functional
[26] = Cytotoxicity against human BEAS-2B cells assessed as cell survival by XTT assay; format: toxicity, cell-based; settings: read-out: Activity
Candida albicans [27] = test: Antifungal activity against Candida albicans ATCC 10231 measured after 48 hrs by broth microdilution analysis; format: functional
Candida albicans [28] = test: Additive antifungal activity against Candida albicans ATCC MYA-1237 assessed as fractional inhibitory concentration index measured for 72 hrs in presence of voriconazole; format: functional
J774.A1 [29] = test: Cytotoxicity against mouse J774.A1 cells assessed as cell survival up to 4 microg/ml by XTT assay; format: toxicity, cell-based; settings: dose < 4 µg/ml

Question: Which MIC (Candida albicans [1]) does the source give for `C[C@@H](c1ncncc1F)[C@](O)(Cn1cncn1)c1ccc(F)cc1F` [VORICONAZOLE] here?
Answer: The MIC was > 32 µg/mL.

Question: What about the MIC (Candida albicans [2]) of the same molecule?
Answer: The MIC was > 32 µg/mL.

Question: And the MIC (Candida albicans [3])?
Answer: The MIC was 0.25 µg/mL (≈ 0.716 µM).

Question: And the Activity (HEK293 [4])?
Answer: Its Activity is “Non-Toxic”.

Question: And the MIC (Aspergillus terreus [5])?
Answer: The MIC was 0.25 µg/mL (≈ 0.716 µM).

Question: What about the MIC (Candida albicans [6]) of the same molecule?
Answer: The MIC was > 32 µg/mL.

Question: What about the MIC (Aspergillus terreus [7]) of the same molecule?
Answer: Its MIC is 0.5 µg/mL.

Question: What about the Activity (BEAS-2B [8]) of the same molecule?
Answer: Its Activity is “Non-Toxic”.

Question: And the Activity (BEAS-2B [9])?
Answer: Its Activity is “Non-Toxic”.

Question: And the MIC (Candida albicans [10])?
Answer: Its MIC is > 32 µg/mL.

Question: What about the MIC (Candida albicans [11]) of the same molecule?
Answer: The MIC was 4 µg/mL (≈ 11.5 µM).

Question: What about the MIC (Nakaseomyces glabratus [12]) of the same molecule?
Answer: Its MIC is > 32 µg/mL.

Question: And the MIC (Candida albicans [13])?
Answer: The MIC was > 32 µg/mL.

Question: And the viability [14]?
Answer: The viability was > 100%.

Question: And the Activity (HEK293 [15])?
Answer: The Activity was “Non-Toxic”.

Question: What about the viability [16] of the same molecule?
Answer: Its viability is > 100%.

Question: And the Activity (HEK293 [17])?
Answer: The Activity was “Non-Toxic”.

Question: And the MIC (Nakaseomyces glabratus [18])?
Answer: Its MIC is > 32 µg/mL.

Question: What about the Activity (J774.A1 [19]) of the same molecule?
Answer: Its Activity is “Non-Toxic”.

Question: And the MIC (Candida albicans [20])?
Answer: Its MIC is > 32 µg/mL.

Question: What about the MIC (Candida albicans [21]) of the same molecule?
Answer: Its MIC is 2 µg/mL.

Question: And the viability at 8 microg/ml [22]?
Answer: Its viability at 8 microg/ml is 100%.

Question: And the MIC (Candida albicans [23])?
Answer: The MIC was 0.25 µg/mL (≈ 0.716 µM).

Question: And the MIC (Candida albicans [24])?
Answer: Its MIC is > 32 µg/mL.

Question: What about the MIC (Candida albicans [25]) of the same molecule?
Answer: Its MIC is > 32 µg/mL.

Question: And the viability [26]?
Answer: The viability was > 100%.

Question: What about the MIC (Candida albicans [27]) of the same molecule?
Answer: Its MIC is 1 µg/mL (≈ 2.86 µM).

Question: And the “fractional inhibitory concentration index (FICI)” value (Candida albicans [28])?
Answer: Its value is 2.

Question: What about the Activity (J774.A1 [29]) of the same molecule?
Answer: Its Activity is “Non-Toxic”.
